Reference: patent US20070053941A1, “Vermin repellent” (priority 2003, published 2007)

Columns and labels:
moles [1] = test: Garden test: fenced-in 100 square meter zone treated with IMP versus untreated control area (Example 2); assay type: in vivo, Talpa europaea
Excerpt: In a garden with an area of 700 square meters with notable mole activity, a zone with an area of 100 square meters was fenced in and treated with IMP under very favourable conditions.

moles [2] = test: Field test: IMP vials buried in mole tunnels at a summer residence lawn (Example 1); assay type: in vivo, Talpa europaea
Description: Locality: A summer residence in Ängelholm in the south of Sweden.
Active substance: 100 μl 20% IMP in hexane in a sealed glass vial which was crushed at application in a mole tunnel.

Compound: COc1nccnc1C(C)C [IMP, 2-isopropyl-3-methoxy-pyrazine]
- Behaviour of moles in the treated area (moles [1]; Example 2, overall conclusion): decidedly disturbed
- Mole hills observed in the treated area (moles [1]; after 4 days, 10 from the start, untreated control area 10 as compared with 6 from the start): 21 mole hills
- Repelling effect on moles (comment on the observations) (moles [2]; Example 1, overall conclusion): has a repelling effect on moles
- Observed effect: mole hills (moles [2]; January 2003, migration back after treatment in June): about 10 mole hills
- Observed effect: new mole hills in direction from the vials (moles [2]; June 15, after 2 vials buried June 11 and 3 vials June 14 (100 μl 20% IMP in hexane each), about 20 mole hills at beginning of June): 4 new mole hills in direction
- Observed effect: new mole hills (moles [2]; June 19, after 5 vials buried): 2 new mole hills
